Measured values as given in patent publication US20030077289A1, “Use of cell-penetrating peptides to generate antitumor immunity” (priority 2001, published 2003).
Residues, ends and D or L forms follow the SMILES beside them.

Legend:
B16 tumor = conditions: Schreurs et al., 2000; 9-mer versus 8-mer; cited from earlier work
CD4+ T cells = assay: Peptide-specific CD4+ T cell activity; format: cell-based
mature DCs = assay: Entry of fluorescein-labeled peptides into mature DCs (fluorescence microscopy); format: cell-based, C57BL/6 mouse
Experimental: 1A) Peptide sequences for cell-penetrating peptide (CPP1), TRP-2 and control peptides. B) Fluorescence and phase-contrast microscopy of DC incubated with various peptide-FITC (40×magnification). DCs incubated with PBS served as a control. 1C) DCs incubated with CPP1-TRP2-FITC and viewed by phase-contrast or fluorescence microscopy at 60×magnification. Representative examples of DC/CPP1-TRP2-FITC are shown. The penetrating fluorescent peptide was localized in both the cytoplasm as well as the cell nucleus. 1D) T cell response to DCs loaded with each peptide (solid circle for CPP1-TRP2, open circle for TRP2, and open triangle for CPP1-βgal) at different time points after peptide pulsing. GM-CSF release from T cells was determined by ELISA.
Dendritic Cell Preparation and Analysis. Mouse immature and mature DCs were derived from C57BL/6 bone marrow as previously described (Labeur et al., 1999; Specht et al., 1997). Phenotype and mixed leukocyte reaction activity of DCs were analyzed according to the protocol described (Specht et al., 1997). Briefly, immature DCs were generated in the presence of murine GM-CSF without transfer steps. The loosely adherent immature DCs were harvested on day 5 and used for experiments. Mature DCs were generated in the presence of recombinant GM-CSF and 1000 U/ml of IL-4 (Peprotech, Rocky Hill, N.J.). […]

Row | Compound | CTL activity in vitro after multiple immunization (B16 tumor) | peptide-specific CD4+ T cell activity (CD4+ T cells) | intracellular localization of peptide in DCs (mature DCs; fluorescein-labeled peptide, mature DC) | internalization of peptide into mature DCs (mature DCs; peptide labeled at N-terminus with fluorescein, incubated with mature DC)
1 | CC(C)C[C@H](NC(=O)[C@H](Cc1c[nH]c2ccccc12)NC(=O)[C@@H](NC(=O)[C@H](Cc1ccccc1)NC(=O)[C@H](Cc1ccccc1)NC(=O)[C@H](CC(=O)O)NC(=O)[C@H](Cc1ccc(O)cc1)NC(=O)[C@@H](N)C(C)C)C(C)C)C(=O)O [TRP2 (VYDFFVWL 8-mer), VYDFFVWL] (H-VYDFFVWL-OH) | comparable | – | – | –
2 | AAVLLPVLLAAPSVYDFFVWL [CPP1-TRP2, TRP2 peptide covalently linked to cell-penetrating peptide CPP1 (21-mer)] | – | not detected | translocated and accumulated in the cytoplasm as well as the cell nucleus | efficiently internalized
3 | SVYDFFVWL [TRP2, reference compound] | – | not detected | – | –
